Measurements from patent US20040146585A1, “Use of thiol-based compositions in treating chemotherapeutic agent-induced thrombocytopenia” (Oregon Health & Science University, priority 2002, published 2004).

System: patients with malignant brain tumors
Description: Blood/bone marrow toxicity data from patients with malignant brain tumors treated with carboplatin-based regimens with or without delayed high-dose STS were graded in accordance with National Cancer Institute Common Toxicity Criteria (NCI CTC) (version 2.0).
Treatment Regimen. Patients with a variety of malignant brain tumor histologies, including metastases to the brain, were eligible for treatment. Patients who had previously undergone central nervous system or systemic radiotherapy or chemotherapy were eligible, however 2 weeks must have elapsed since prior radiotherapy and 4 weeks since prior chemotherapy. Patients were required to have normal hematologic, renal and hepatic function.
The BBBD procedure was done on two consecutive days, approximately every 4 weeks for up to 12 months. Mannitol (25%) was infused (5-10 cc/sec) into the appropriate internal carotid or vertebral artery, depending on tumor location, for 30 seconds. The combination chemotherapy regimen consisted of cyclophosphamide (330 Mg/m^2/day×2 days; total dose, 660 mg/m^2) (i.v.) beginning approximately 20 minutes before the mannitol infusion, carboplatin (200 mg/m^2/day×2 days; total dose, 400 Mg/m^2) (i.a.) administered over 10 minutes, within 5 minutes after the mannitol, and etoposide (i.v.) or etoposide phosphate (200 mg/m^2/day×2 days; total dose, 400 mg/m^2) (i.a. or i.v.). Patients received granulocyte-colony stimulating factor (G-CSF) (5 mcg/kg) for 10 days after chemotherapy or until the absolute neutrophil count was greater than 1000/μL.
STS was available as a 25% (250 mg/ml) solution. Dose was determined (16 or 20 grams/m^2) and mixed with an equivalent amount of sterile water (1 ml: 1 ml) for infusion. […] The most commonly used regimen was benadryl (12.5 mg), dexamethasone (6 mg), and if needed, ativan (0.5-1.0 mg), i.v. 30-45 minutes before STS.
STS was administered i.v. over about 15 minutes. The number of STS doses the patient received depended on the patient baseline hearing status, and whether they experienced an ototoxic shift during treatment. Patients treated with BBBD/STS received STS in one dose (20 grams/m^2) 4 hours after carboplatin (n=10), or two doses (20 grams/m^2 at 4 hrs, and 16 grams/m^2 at 8 hours) after carboplatin (n=19).
Because malignant brain tumor patients are at risk for intracerebral hemorrhage, patients underwent platelet transfusion when platelet count was <20×10^3/mm^3. Following a platelet transfusion, on subsequent chemotherapy courses the carboplatin dose was reduced 25%.
Data Analysis. Blood/bone marrow toxicity data were graded in accordance with NCI CTC and analyzed in the following […] treatment groups: 1) patients treated with carboplatin, cyclophosphamide and etoposide with BBBD and without STS, and 2) patients treated with carboplatin, cyclophosphamide and etoposide phosphate with BBBD and with STS. For both groups, blood/bone marrow toxicity data from all carboplatin-based courses of patients in treatment were included in the analysis.
First, platelet nadirs were plotted for each subject and as means for each of the three study groups. For group comparisons, a mixed, repeated measures analysis of variance (ANOVA) model was fit using the parameter platelet nadir for each course as the measure. Gender, […] (≧70 or not), prior chemotherapy, prior radiation, and age at first course were included as covariates. Several other events were examined including grade 3 or 4 platelet toxicity as defined by NCI CTC, platelet transfusion, and the need for hematologically driven chemotherapy dose reduction. […] For present/absent outcomes as these, a mixed model repeated measures analysis (using the present/absent outcomes as the best response for each course) was performed. The mixed model ANOVA's using presence/absence of the outcome was adjusted for the covariates listed above.
Analyses were performed using Version 8.01 of SAS® for Windows.

SMILES: O=S([O-])([O-])=S.[Na+].[Na+] [STS, sodium thiosulfate]
- adverse effects caused by high-dose STS (16 or 20 grams/m^2 i.v., National Cancer Institute CTC, version 2.0): transient hypematremia, hypertension, and controllable grade II nausea and vomiting
- patients requiring dose reduction of carboplatin (BBBD with STS): no patients
- Platelet Nadir <20 × 10^3/mm^3, percent of carboplatin courses (BBBD/STS, 129 courses): 1% courses
- Platelet Transfusions, percent of carboplatin courses (BBBD/STS, 129 courses): 2% courses
- Dose Reductions of carboplatin, percent of patients (BBBD/STS, n = 29): 0% pts
- Platelet Transfusions, percent of patients (BBBD/STS, n = 29): 7% pts
- Platelet Nadir <20 × 10^3/mm^3, percent of patients (BBBD/STS, n = 29, carboplatin, cyclophosphamide, etoposide phosphate, STS i.v. 20 grams/m^2 at 4 h (and 16 grams/m^2 at 8 h) after carboplatin): 4% pts
- grade 3 or 4 white blood cell toxicity, treatment groups with vs without STS (NCI CTC): no significant difference among treatment groups
- grade 3 or 4 platelet toxicity, treatment groups with vs without STS (NCI CTC, adjusted for age at first carboplatin treatment, p=0.14): no significant difference among the treatment groups
- rates of dose reduction of carboplatin, treatment groups with vs without STS (Pearson chi-square test): difference between the treatment groups was significant
- platelet transfusion (present or absent), treatment groups with vs without STS (mixed model, p=0.035): significant difference between the treatment groups
- platelet nadir <20×10^3/mm^3 (binary), treatment groups with vs without STS (mixed-model analysis of variance controlling for KPS≧70 and prior chemotherapy, p=0.0002): significant difference among the two treatment groups
- estimated probabilities of platelet transfusions (patients treated with BBBD and STS, mixed model estimate (22.4% for BBBD without STS)): 9.0%
